These results are taken from patent US10912843B2, “Endoplasmic reticulum-targeting nanovehicles and methods for use thereof” (National Cheng Kung University, priority 2018, dated 2021).

Bounds are passed on as bounds.

For data set [1], the system named is differentiated HL-60 cells. Kind of data set: Curcumin-induced extracellular calcium influx. It is filed as cell-based. As for the experimental part:
Extracellular calcium influx, which is triggered by the depletion of ER calcium stores, was measured in cells treated with free curcumin or treated with curcumin-loaded nanoparticles as follows. Differentiated HL-60 cells were pretreated with free curcumin (10 μM), curcumin-loaded PLGA nanoparticles (0.5 μM), and curcumin-loaded ER-targeted PLGA nanoparticles (0.5 μM) at 37° C. overnight. Cells were washed with calcium-free HBSS, seeded on poly-lysine coated 8-well slides (ibidi, Planegg, Germany) at a density of 1×10^6 cells/ml, and incubated at 37° C. for 30 min. Cells were labeled with 2 μM of the calcium-sensitive fluorescent dye Fluo-4 AM and 1 μM of ER-tracker at 37° C. for 30 min. Labeled cells were treated with 1.25 mM CaCl2. Fluorescence images were captured by confocal microscopy every 10 s for 5 min. following the addition of CaCl2. Fluorescence intensities in these images were analyzed using ImageJ software. The change in fluorescence intensity over time divided by the baseline fluorescence intensity prior to calcium addition (ΔF/FO) was plotted versus time, and the rate of calcium level increase (ΔF/F/s) was derived from that plot. The overall calcium flux was calculated as the area under the curve (AUC) of a ΔF/F/s versus time curve.

In another data set the test system is H338Y-gp91^phox protein. Kind of data set: Expression and maturation of H338Y-gp91^phox protein in neutrophils of treated transgenic mice (Western blot). It counts as in vivo, mouse. Conditions: Cybb^C1024T transgenic Cybb^-/- mice, treated 24 hours, 20 mg/kg of curcumin. Here is the method: The expression of H338Y-gp91^phox protein in neutrophils from the Cybb^C1024T transgenic Cybb^−/− mice was examined by SDS-PAGE and Western blotting with an anti-gp91^phox antibody. To isolate neutrophils, mice were injected intraperitoneally with 3 ml of 3% thioglycollate to elicit peritoneal neutrophils. Four hours later, the mice were sacrificed, and the peritoneal cavity was washed twice with 5 ml of Hanks buffered salt solution (HBSS) with 2 mM ethylene glycol tetraacetic acid to collect the elicited peritoneal neutrophils. Peritoneal neutrophils were then washed with PBS before use.
Curcumin-loaded PLGA nanoparticles with or without the ER-targeting KDEL peptide were tested for their effects on the expression and maturation of H338Y-gp91^phox protein in Cybb^C1024T transgenic Cybb^−/− mice. Briefly, mice were untreated or treated separately with free curcumin, curcumin-loaded PLGA nanoparticles, or curcumin-loaded ER-targeted PLGA nanoparticles for 24 hours in amounts corresponding to 20 mg/kg of curcumin. Neutrophils from the mice were elicited, isolated, and analyzed for expression of H338Y-gp91^phox protein as described above.
Statistical analyses were carried out with Prism software (GraphPad Software). […]
In general terms: A western blot detects proteins with antibodies after separation by electrophoresis.

Data set [2] deals with differentiated HL-60 cells. Kind of data set: Curcumin-induced intracellular calcium release (Fluo-4AM). It is filed as cell-based. Particulars: 10 μM. Here is the method: SERCA inhibitors such as curcumin cause an increase in intracellular calcium release from the ER. The ability of curcumin to induce calcium release was compared to that of PLGA nanoparticle-encapsulated curcumin. Differentiated HL-60 cells were seeded on 8-well slides in calcium-free medium and loaded with the intracellular calcium-sensitive indicator dye Fluo-4AM. Cells were treated with thapsigargin (positive control) or treated with 0.5, 1, or 10 μM curcumin, curcumin-loaded PLGA nanoparticles, or curcumin-loaded ER-targeted PLGA nanoparticles. Fluorescence intensity over time was measured in treated cells by confocal microscopy and analyzed using ImageJ software. The change in fluorescence intensity over time divided by the baseline fluorescence intensity prior to calcium addition (ΔF/FO) was plotted versus time.
(A change in cytosolic calcium serves as a functional read-out for many receptors and channels.)

For data set [3], the system named is differentiated HL-60 cells. The data set can be described thus: Mitochondrial membrane potential (TMRM, flow cytometry). It is filed as cell-based. Conditions: 10 μM, 24 hours; FIG. 5A. As for the experimental part:
As mentioned above, it has been shown that curcumin is cytotoxic, as it induces ER stress and apoptosis. The cytotoxicity of free curcumin was compared to that of encapsulated curcumin by measuring in treated cells mitochondrial membrane potential (one measure of cytotoxicity), apoptotic markers, and ER stress-related protein expression.
(§1) Differentiated HL-60 cells were treated with 0.5 μM or 10 μM free curcumin, curcumin-loaded PLGA nanoparticles, or curcumin-loaded ER-targeted PLGA nanoparticles for 24 hours. Treated cells were labeled with 250 nM of the mitochondrial membrane potential indicator dye tetramethylrhodamine (TMRM) at 37° C. for 30 min. TMRM-labeled cells were analyzed by flow cytometry and their mitochondrial membrane potentials quantified using the Flowing Software 2 software package.
For orientation: A flow cytometer gives signals particle by particle.

Data set [4] deals with differentiated HL-60 cells. The data set can be described thus: ER stress response and caspase-3 cleavage (Western blot). Conditions: 10 μM. It is filed as cell-based. As for the experimental part: To determine whether the activation of the ER stress response is involved in curcumin-induced apoptosis, the levels of ER stress markers Bip and phosphorylated ERK, as well as the level of cleaved Caspase-3, a marker of apoptosis, were quantified by Western blot analysis of cells treated with 10 μM curcumin or encapsulated curcumin.
Briefly, treated cells were lysed in 100 μl of lysis buffer (1% Triton-X100, 150 mM NaCl, 10 mM Tris base, 1 mM EDTA, 1 mM EGTA, 50×protease inhibitor cocktail, pH 7.4). Lysed samples were subjected to 10% SDS-PAGE and transferred to membranes for Western Blot analysis using antibodies that bind to Bip, phospho-ERK, total ERK, cleaved caspase-3, and β-actin. Binding of these antibodies was visualized using commercially available enhanced chemiluminescence reagents. Chemiluminescent signals were quantified from images using ImageJ software.

Data set [5] has as its system human peripheral blood hematopoietic cells (HSCs). Kind of data set: Erythroblast differentiation (CD71 / CD235a flow cytometry). Particulars: FIG. 6A. It counts as cell-based. Here is the method:
Erythroblast differentiation was measured in human peripheral blood hematopoietic cells (HSCs) treated with free curcumin or treated with curcumin-loaded nanoparticles as follows. Human CD34^+ HSCs were cultured in Iscove's modified Dulbecco medium containing 15% heat-inactivated fetal calf serum, 2 U/ml of recombinant human erythropoietin, 20 ng/ml of stem cell factor, and 10 ng/ml of interleukin-3 (IL-3). On day 4, the medium was replaced with fresh medium without IL-3 and the HSCs were cultured for another 5 days. The maturation of erythroblasts was analyzed by detecting the surface expression of CD71 and CD235a with flow cytometry.

In data set [6] the test system is differentiated HL-60 cells. The data set can be described thus: Detection of apoptotic cells (Annexin V / 7-AAD). Particulars: 10 μM, 24 hours; FIG. 5B. It counts as cell-based. As for the experimental part: as §1
Cells treated as above with free or encapsulated curcumin were washed with ice-cold phosphate-buffered saline and stained with phycoerythrin-Annexin V and 7 amino-actinomycin D (7-AAD) at room temperature for 15 min. Annexin V binds to the surface of cells undergoing apoptosis, and 7-AAD only enters and stains apoptotic cells. Stained cells were subjected to flow cytometry analysis and the results analyzed using the Flowing Software 2 analysis package.

`C/C=C(/C)C(=O)O[C@H]1C(C)=C2[C@H]([C@@H]1OC(=O)CCCCCCC)[C@@](C)(OC(C)=O)C[C@H](OC(=O)CCC)[C@@]1(O)[C@H]2OC(=O)[C@@]1(C)O` [Thapsigargin, thapsigargin]: the “time to calcium influx after addition” value in data set [1] (positive control, 1.25 mM extracellular calcium) is no more than 10 s.
For `COc1cc(/C=C/C(=O)CC(=O)/C=C/c2ccc(O)c(OC)c2)ccc1O` [free curcumin, curcumin], in the data set with H338Y-gp91^phox protein, the “expression of glycosylated H338Y-gp91^phox as compared to untreated mice” value is listed as “did not show any change”. In addition, in data set [2], the “rate of intracellular calcium increase, compared with lower concentrations of free curcumin” value was “highest”. Besides, in data set [2] (calcium-free medium, 40, 50 and 60 s after treatment), the “level of calcium release, compared with 0.5 μM and 1 μM free curcumin” value is listed as “significantly higher”. Moreover, in data set [3], the “mitochondrial membrane potential compared with control untreated cells” value was “significant reduction”. The “ERK phosphorylation compared with untreated control cells” value in data set [4] (FIG. 5C center panel) was “increased”. Moreover, the “Bip expression compared with untreated control cells” value in data set [4] (FIG. 5C left panel) is recorded as “increased”. In addition, the “calcium influx rate 20 s after treatment, compared with 0.5 μM curcumin-loaded nanoparticles” value in data set [1] (10 μM) is reported as “significantly higher”. Besides, the “percentages of more mature CD71^low CD235^high cells in treated HSCs” value in data set [5] was “significantly enhanced”. For the same compound, in data set [6], the “number of apoptotic cells (Annexin V binding)” value was “significant increase”.
